{"source": "paper PMC11046469", "about": "“Leveraging a Phage-Encoded Noncanonical Amino Acid: A Novel Pathway to Potent and Selective Epigenetic Reader Protein Inhibitors” (ACS Central Science, 2024)", "note": "Where a SMILES comes first, the peptide text is derived from it. The star is where a group is joined. Oxazole(5-CO) = O=C(c1cnco1)*; Crotonyl(E) = C/C=C/C(=O)*; 2Furoyl = O=C(c1ccco1)*; Butyryl = CCCC(=O)*"}
{"biological_target": "T1, AF9 YEATS (His-AF9) (Homo sapiens, UniProt P42568)", "T1 construct": "His-AF9 (aa 1-149, EpiCypher); purchased EpiCypher", "T1 sequence (P42568 1-149)": "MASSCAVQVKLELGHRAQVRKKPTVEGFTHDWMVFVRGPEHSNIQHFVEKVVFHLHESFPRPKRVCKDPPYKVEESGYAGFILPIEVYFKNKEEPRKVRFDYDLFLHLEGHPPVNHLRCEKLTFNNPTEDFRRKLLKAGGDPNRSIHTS", "assay": "Biolayer interferometry (BLI) binding to AF9 YEATS", "method": "These potent inhibitors were then tested to confirm their selectivity for ENL YEATS over AF9 YEATS since the two YEATS domains share high sequence and structure homology. One potential of using ncAA-containing phage display for active site-directed ligand search is the possibility of amino acids flanking the ncAA in a selected peptide to selectively engage the target over a close homologue. We wanted to validate this potential as well. Selective targeting of ENL YEATS is also preferred in leukemia interventions as it plays a pivotal role in the progression and maintenance of several AMLs and poses minimal harm to normal hematopoietic stem cells upon inhibition. […] We propose that the selectivity arises from the peptide residues interacting with surface areas adjacent to the active site of ENL YEATS. […] Similarly, BLI analyses were conducted to examine preferential binding of inhibitors to ENL YEATS. […] Two previous publications have documented peptide-based YEATS inhibitors featuring alkylated lysine residues.[42],[43] […]\nBiolayer Interferometry to Validate ENL Ligands:\nHis-ENL, His-AF9 (aa 1-149, EpiCypher), His-GAS41 (aa 15-160, EpiCypher), and YEATS2-His (aa 200-345, EpiCypher) were reconstituted in water and diluted into assay buffer (20mM Tris, 300 mM NaCl, pH 7.9) for immobilization onto Octet Ni-NTA biosensors (Sartorius). Lyophilized peptides were dissolved in DMF and diluted to designated concentrations in assay buffer. Biolayer interferometry assays were performed in 96 well plates (GreinerBio-One, polypropylene, flat-bottom) using an Octet Red96 System (Sartorius). Wells were filled with 200 μL of assay buffer, blocking buffer (assay buffer + 0.1% BSA), protein solution, peptide solution, regeneration solution, and reload solution. For immobilization, His-tagged proteins were immobilized onto Ni-NTA sensors at 20 for 600 s. Sensors were then dipped into blocking buffer for 180 s, assay […] buffer for 300 s, peptide solution for 300 s, and back to assay buffer for 300 s. If multiple samples were tested, Ni-NTA sensors can be reconditioned in regeneration (10 mM glycine, pH 1.7) solution followed by reload solution (10 mM NiCl2) for 30 and 60 s, respectively. Measurements were carried out at 30 °C. Data were analyzed within the ForteBio Data Analysis software. […]\nThe AlphaScreen assay was carried out in 384-well plates. […] AlphaScreen-signals were detected by a multi-mode microplate reader (BioTeK Synergy Neo2) equipped with an Alpha-laser (PerkinElmer). The KD value was determined from the plot using nonlinear regression of variable slope (four parameters) and curve fitting performed in GraphPad Prism. […]\nThe AlphaScreen assay conditions are essential the same as the previous described. […] IC50 values were determined from the plot using […]", "units": {"Kd": "nM"}}
{"smiles": "CC(C)[C@H](NC(=O)[C@H](CC(=O)O)NC(=O)[C@@H](N)Cc1ccc(O)cc1)C(=O)N[C@@H](Cc1ccc(O)cc1)C(=O)N[C@@H](CS)C(=O)N[C@@H](Cc1ccc(O)cc1)C(=O)N[C@@H](CCCCNC(=O)c1ccco1)C(N)=O", "note": "[ENL-S1f] (H-YDVYCYK(2Furoyl)-NH2)", "Kd": 144}
{"smiles": "CCCC(=O)NCCCC[C@H](NC(=O)[C@H](Cc1ccc(O)cc1)NC(=O)[C@H](CS)NC(=O)[C@H](Cc1ccc(O)cc1)NC(=O)[C@@H](NC(=O)[C@H](CC(=O)O)NC(=O)[C@@H](N)Cc1ccc(O)cc1)C(C)C)C(N)=O", "note": "[ENL-S1] (H-YDVYCYK(Butyryl)-NH2)", "Kd": 205}
{"smiles": "CC(C)[C@H](NC(=O)[C@H](CC(=O)O)NC(=O)[C@@H](N)Cc1ccc(O)cc1)C(=O)N[C@@H](Cc1ccc(O)cc1)C(=O)N[C@@H](CS)C(=O)N[C@@H](Cc1ccc(O)cc1)C(=O)N[C@@H](CCCCNC(=O)c1cnco1)C(N)=O", "note": "[ENL-S1o] (H-YDVYCYK(Oxazole(5-CO))-NH2)", "Kd": 55.1}
{"smiles": "C/C=C/C(=O)NCCCC[C@H](NC(=O)[C@H](Cc1ccc(O)cc1)NC(=O)[C@H](CS)NC(=O)[C@H](Cc1ccc(O)cc1)NC(=O)[C@@H](NC(=O)[C@H](CC(=O)O)NC(=O)[C@@H](N)Cc1ccc(O)cc1)C(C)C)C(N)=O", "note": "[ENL-S1c] (H-YDVYCYK(Crotonyl(E))-NH2)", "Kd": 147}
